# Data as given in patent US20110301079A1, “NEUROMEDIN U RECEPTOR AGONISTS AND USES THEREOF” (Instituto di Ricerche di Biologia Molecolare P. Angeletti …, priority 2007, published 2011).
# Residues, ends and D or L forms follow the SMILES beside them. *: point of attachment. X1 = CC(C)CCC[C@@H](C)[C@H]1CC[C@H]2[C@@H]3CC=C4C[C@@H](OC(=O)C*)CC[C@]4(C)[C@H]3CC[C@]12C
# Columns and labels:
# [1] = molecular target: T1, human NMUR1 (Homo sapiens, UniProt Q9HB89); test: FLIPR calcium mobilization assay, human NMUR1-expressing cell line; assay type: cell-based; settings: for % Activity: human NMUR1, maximum response at 1 μM compared to the human NMU-25 response at the same concentration
# T1 construct: expressed in transfected cells; host or cells: FLP-In CHO cells and HEK-293 FLP-In cells (pcDNA5)
# T1 sequence (Q9HB89 1-426): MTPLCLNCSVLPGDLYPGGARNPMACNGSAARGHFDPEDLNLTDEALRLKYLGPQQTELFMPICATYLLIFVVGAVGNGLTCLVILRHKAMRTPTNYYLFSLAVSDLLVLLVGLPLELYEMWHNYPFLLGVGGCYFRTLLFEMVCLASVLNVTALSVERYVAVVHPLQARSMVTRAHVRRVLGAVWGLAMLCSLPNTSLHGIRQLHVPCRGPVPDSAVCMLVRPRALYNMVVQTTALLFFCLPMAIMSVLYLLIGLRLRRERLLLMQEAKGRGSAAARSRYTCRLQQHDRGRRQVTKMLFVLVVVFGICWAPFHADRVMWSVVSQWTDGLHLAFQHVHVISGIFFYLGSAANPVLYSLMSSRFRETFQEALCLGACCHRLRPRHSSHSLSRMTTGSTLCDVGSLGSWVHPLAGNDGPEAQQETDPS
# Excerpt: (§1) Human, mouse or rat cDNAs encoding NMUR1 or NMUR2 (as described in Howard et al. Nature 406: 70-74 (2000) were subcloned in pcDNA5 (Invitrogen) and transfected into FLP-In CHO cells and HEK-293 FLP-In cells purchased from Invitrogen (Carlsbad, Calif.) using lipofectamine (Invitrogen). The Flp-In system allows integration and expression of a particular gene of interest at a specific genomic location utilizing the Flp recombinase from yeast. The transfected cells were selected by growth in medium containing 200 μg/mL hygromycin (Invitrogen). Populations were frozen at early passage numbers, and these stocks were used for further studies. Stable clones that expressed the mRNAs were identified functionally by FLIPR as well as by RT-PCR. […] Two different rodent NMUR1 cell lines were thus generated: one with the codon as predicted from the genomic databases and another cell line with an engineered methionine (ATG) as the start codon. The dog NMU receptors were also cloned from intestine RNA (NMUR1) and brain (NMUR2) and stable cell lines were generated as used for the human and rodent cell lines. […] To ensure high levels of expression in a heterologous system, a dog NMUR1 cell line was generated that contains an ATG as the start codon. Additionally, stable cell lines expressing the human receptors were generated in HEK-293/aeq 17 cells which stably express the aequorin gene under the CMV promoter. The human NMUR2 cDNA was cloned into pcDNA3.1 and human NMUR1 was subcloned into pIRES-puro (Clontech, Mountain View, Calif.), after transfection cells were selected in media containing G418 and either hygromycin (NMUR2) or puromycin (NMUR1).
# (§2) The NMU receptors signal primarily through Gαq/11 proteins; therefore calcium mobilization assays can be utilized for functional activity.
# (§3) Stable cell lines expressing human and or rodent NMUR1 or human NMUR2 receptors are plated at a density of 12,000 cells per well overnight on poly-lysine coated 384-well black-walled plates. The following day, the media is removed from the plates and the cells were subsequently loaded with Fluo-3 (Molecular Probes), a calcium sensitive dye, diluted in FLIPR buffer (1× Hank's buffered saline containing 20 mM HEPES, 0.1% BSA, 2.5 mM probenecid (Sigma) and 1.6 mM TR40). All reagents are from Invitrogen unless otherwise noted. Peptide stocks are resuspended in DMSO at a stock concentration of 2 mM and diluted in FLIPR buffer on the day of the experiment to a 4 μM working stock solution.
# (§4) After a 90 minute incubation at room-temperature, cell plates are loaded onto a FLIPR (Molecular Devices) to monitor cellular fluorescence (excitation=488 nm; emission=540 nm) before and after compound/peptide addition. Eight to twelve point dose responses are tested on NMUR-expressing cell lines using FLIPR with 1 μM peptide as the highest dose. The response after peptide addition is taken as the maximum fluorescence units minus the fluorescence immediately prior to stimulation for each well. EC50 values are calculated using GraphPad Prism (San Diego, Calif.) software.
# (§5) Percent activity refers to the maximum response at 1 μM compared to the human NMU-25 response at the same concentration.
# [2] = molecular target: T2, human NMUR2 (Homo sapiens, UniProt Q9GZQ4); test: FLIPR calcium mobilization assay, human NMUR2-expressing cell line; assay type: cell-based; settings: for % Activity: human NMUR2, maximum response at 1 μM compared to the human NMU-25 response at the same concentration
# T2 construct: expressed in transfected cells; host or cells: FLP-In CHO cells and HEK-293 FLP-In cells (pcDNA5)
# Excerpt: as §1, §2, §3, §4, §5
# [3] = molecular target: T3, mouse NMUR1-ATG (Mus musculus, UniProt O55040); test: FLIPR calcium mobilization assay, mouse NMUR1-ATG cell line; assay type: cell-based; settings: for % Activity: maximum response at 1 μM compared to the human NMU-25 response at the same concentration
# T3 construct: expressed in transfected cells; host or cells: FLP-In CHO cells and HEK-293 FLP-In cells (pcDNA5)
# T3 sequence (O55040 1-428): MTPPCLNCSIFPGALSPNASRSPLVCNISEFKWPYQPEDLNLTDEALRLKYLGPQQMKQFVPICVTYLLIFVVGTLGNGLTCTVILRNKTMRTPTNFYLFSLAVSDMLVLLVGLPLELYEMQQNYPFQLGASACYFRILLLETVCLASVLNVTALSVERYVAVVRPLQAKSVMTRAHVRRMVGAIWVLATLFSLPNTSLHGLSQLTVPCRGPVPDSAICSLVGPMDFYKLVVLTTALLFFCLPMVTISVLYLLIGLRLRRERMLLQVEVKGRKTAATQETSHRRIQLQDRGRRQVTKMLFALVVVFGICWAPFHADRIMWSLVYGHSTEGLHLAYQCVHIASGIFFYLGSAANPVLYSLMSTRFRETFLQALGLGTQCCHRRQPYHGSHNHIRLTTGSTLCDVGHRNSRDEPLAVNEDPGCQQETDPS
# Excerpt: as §1, §2, §3, §4, §5
# [4] = molecular target: T4, mouse NMUR2 (Mus musculus, UniProt Q8BZ39); test: FLIPR calcium mobilization assay, mouse NMUR2 cell line; assay type: cell-based; settings: for % Activity: mouse NMUR2, maximum response at 1 μM compared to the human NMU-25 response at the same concentration
# T4 construct: expressed in transfected cells; host or cells: FLP-In CHO cells and HEK-293 FLP-In cells (pcDNA5)
# Excerpt: as §1, §2, §3, §4, §5
# [5] = system: dog NMUR1-ATG; test: FLIPR calcium mobilization assay, dog NMUR1-ATG cell line; assay type: cell-based; settings: for EC50: FLIPR; for % Activity: maximum response at 1 μM compared to the human NMU-25 response at the same concentration
# Excerpt: as §1, §2, §3, §4, §5
# [6] = molecular target: T5, dog NMUR2 (Canis lupus familiaris, UniProt A0A8I3MN59); test: FLIPR calcium mobilization assay, dog NMUR2 cell line; assay type: cell-based; settings: for % Activity: dog NMUR2, maximum response at 1 μM compared to the human NMU-25 response at the same concentration
# T5 construct: expressed in transfected cells
# Excerpt: as §1, §2, §3, §4, §5
# [7] = system: mice; test: Acute subcutaneous administration of NMS analogs, daily food intake and body weight; assay type: in vivo; settings: for food intake: lipidated analogs compared to NMS1, FIG. 10A; for body weight: lipidated analogs compared to NMS1, FIG. 10B
# T2 sequence (Q9GZQ4 whole entry): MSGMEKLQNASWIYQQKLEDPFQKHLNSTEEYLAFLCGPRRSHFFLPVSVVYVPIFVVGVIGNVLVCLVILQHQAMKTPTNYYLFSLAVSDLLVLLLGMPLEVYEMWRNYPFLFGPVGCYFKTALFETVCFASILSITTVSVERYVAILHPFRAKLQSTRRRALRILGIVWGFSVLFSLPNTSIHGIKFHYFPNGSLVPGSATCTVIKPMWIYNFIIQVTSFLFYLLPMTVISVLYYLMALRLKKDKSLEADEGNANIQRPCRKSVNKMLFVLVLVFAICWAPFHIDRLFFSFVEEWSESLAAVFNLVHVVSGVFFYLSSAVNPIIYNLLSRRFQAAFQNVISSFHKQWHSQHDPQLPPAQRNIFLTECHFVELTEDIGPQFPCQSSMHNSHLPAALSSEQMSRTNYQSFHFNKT
# T4 sequence (Q8BZ39 whole entry): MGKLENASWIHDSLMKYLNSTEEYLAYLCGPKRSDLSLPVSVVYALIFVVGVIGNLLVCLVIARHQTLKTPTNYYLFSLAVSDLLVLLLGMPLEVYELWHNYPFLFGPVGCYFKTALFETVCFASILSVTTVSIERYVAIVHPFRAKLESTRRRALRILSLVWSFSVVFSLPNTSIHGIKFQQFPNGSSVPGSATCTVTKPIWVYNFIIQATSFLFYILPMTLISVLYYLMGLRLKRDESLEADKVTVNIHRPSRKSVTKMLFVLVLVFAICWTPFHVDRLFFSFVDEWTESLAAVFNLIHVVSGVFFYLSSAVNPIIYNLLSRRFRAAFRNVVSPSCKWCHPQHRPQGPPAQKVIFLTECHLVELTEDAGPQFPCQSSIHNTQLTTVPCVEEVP
# T5 sequence (A0A8I3MN59 1-378): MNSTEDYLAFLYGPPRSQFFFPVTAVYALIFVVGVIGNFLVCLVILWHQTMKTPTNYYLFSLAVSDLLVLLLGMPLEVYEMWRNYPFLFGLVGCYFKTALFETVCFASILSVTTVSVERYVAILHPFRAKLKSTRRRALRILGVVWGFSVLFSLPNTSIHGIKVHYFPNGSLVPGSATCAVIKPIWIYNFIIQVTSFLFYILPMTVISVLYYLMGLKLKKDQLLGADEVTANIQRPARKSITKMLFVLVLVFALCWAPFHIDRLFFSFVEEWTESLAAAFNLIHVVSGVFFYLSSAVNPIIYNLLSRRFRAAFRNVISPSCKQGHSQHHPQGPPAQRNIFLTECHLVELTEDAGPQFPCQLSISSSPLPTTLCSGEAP
"EC50 ([1]; human NMUR1, FLIPR) [nM]","EC50 ([2]; human NMUR2, FLIPR) [nM]",EC50 ([3]; FLIPR) [nM],"EC50 ([4]; mouse NMUR2, FLIPR) [nM]","EC50 ([6]; dog NMUR2, FLIPR) [nM]",Structure (SMILES),% Activity [1] [%],% Activity [2] [%],% Activity [3] [%],% Activity [4] [%],EC50 [5] [nM],% Activity [5] [%],% Activity [6] [%],food intake [7],body weight [7]
,,,,,CC[C@H](C)[C@H](NC(=O)[C@H](CSCC(=O)O[C@H]1CC[C@@]2(C)C(=CC[C@H]3[C@@H]4CC[C@H]([C@H](C)CCCC(C)C)[C@@]4(C)CC[C@@H]32)C1)NC(C)=O)C(=O)N[C@@H](CC(C)C)C(=O)N[C@@H](CCC(N)=O)C(=O)N[C@@H](CCCNC(=N)N)C(=O)NCC(=O)N[C@@H](CO)C(=O)NCC(=O)N[C@H](C(=O)N[C@@H](C)C(=O)N[C@@H](C)C(=O)N[C@H](C(=O)N[C@@H](CC(=O)O)C(=O)N[C@@H](Cc1ccccc1)C(=O)N[C@H](C(=O)N[C@@H](CCCCN)C(=O)N[C@@H](CCCCN)C(=O)N[C@@H](CC(=O)O)C(=O)N[C@@H](Cc1c[nH]cn1)C(=O)N[C@H](C(=O)N[C@@H](C)C(=O)N[C@H](C(=O)N[C@@H](Cc1c[nH]c2ccccc12)C(=O)NCC(=O)N[C@@H](CCCNC(=N)N)C(=O)N1CCC[C@H]1C(=O)N[C@@H](Cc1ccccc1)C(=O)N[C@@H](Cc1ccccc1)C(=O)N[C@@H](CC(C)C)C(=O)N[C@@H](Cc1ccccc1)C(=O)N[C@@H](CCCNC(=N)N)C(=O)N1CCC[C@H]1C(=O)N[C@@H](CCCNC(=N)N)C(=O)N[C@@H](CC(N)=O)C(N)=O)[C@@H](C)O)[C@@H](C)O)[C@@H](C)O)C(C)C)[C@@H](C)O [NMS2] (Ac-C(X1)ILQRGSGTAAVDFTKKDHTATWGRPFFLFRPRN-NH2),11,16,39,32,≥ 1000,46,84,significantly reduce,significantly reduce
248,214,12.5,40.1,18.8,CCCCCCCCCCCCCCCC(=O)N[C@H](C(=O)N[C@@H](CC(C)C)C(=O)N[C@@H](CCC(N)=O)C(=O)N[C@@H](CCCNC(=N)N)C(=O)NCC(=O)N[C@@H](CO)C(=O)NCC(=O)N[C@H](C(=O)N[C@@H](C)C(=O)N[C@@H](C)C(=O)N[C@H](C(=O)N[C@@H](CC(=O)O)C(=O)N[C@@H](Cc1ccccc1)C(=O)N[C@H](C(=O)N[C@@H](CCCCN)C(=O)N[C@@H](CCCCN)C(=O)N[C@@H](CC(=O)O)C(=O)N[C@@H](Cc1c[nH]cn1)C(=O)N[C@H](C(=O)N[C@@H](C)C(=O)N[C@H](C(=O)N[C@@H](Cc1c[nH]c2ccccc12)C(=O)NCC(=O)N[C@@H](CCCNC(=N)N)C(=O)N1CCC[C@H]1C(=O)N[C@@H](Cc1ccccc1)C(=O)N[C@@H](Cc1ccccc1)C(=O)N[C@@H](CC(C)C)C(=O)N[C@@H](Cc1ccccc1)C(=O)N[C@@H](CCCNC(=N)N)C(=O)N1CCC[C@H]1C(=O)N[C@@H](CCCNC(=N)N)C(=O)N[C@@H](CC(N)=O)C(N)=O)[C@@H](C)O)[C@@H](C)O)[C@@H](C)O)C(C)C)[C@@H](C)O)[C@@H](C)CC [NMS5] (HELM PEPTIDE1{[CCCCCCCCCCCCCCCC(=O)[*:2]].I.L.Q.R.G.S.G.T.A.A.V.D.F.T.K.K.D.H.T.A.T.W.G.R.P.F.F.L.F.R.P.R.N.[am]}$$$$V2.0),85,93,83,78,≥ 1000,82,100,significantly reduce,significantly reduce
